Legend:
HCT116/OxR cells = assay: MTT-based cell viability assay, 72 h; design: species or system human
Method: Cell models were seeded (2–2.5 × 10^3 cells per well) in 96-well plates. After 24 h of recovery, the compounds were applied at the concentrations indicated in triplicate. Cell viability was determined after 72 h of continuous drug incubation using an MTT-based cell viability assay (EZ4U, Biomedica, Vienna, Austria) according to the manufacturer's recommendations. Absorbance was measured at 450 nm (vs. 620 nm as reference) using a multimode microplate reader (Tecan Spark, Zurich, Switzerland). Half-maximal inhibitory concentrations (IC50 values) were derived via interpolation from dose–response curves, modeled with the four-parameter logistic (4PL) nonlinear regression model in GraphPad Prism (La Jolla, CA, USA) from at least three independent experiments.

[1] = system: IRF pathway (STING-dependent); assay: IRF-inducible luciferase reporter in THP1-Dual reporter cell model; type: cell-based, human; conditions: for IRF %EMAX of MSA-2: maximal response relative to MSA-2, highest tested dose 100 μM; for EC50: 24 h exposure, normalized to cell viability, oxaliplatin in combinations 5 μM
From the text: (§1) The THP1-Dual™ reporter cell model for simultaneously monitoring the activity of the IRF and NF-κB pathway contains an IRF-inducible luciferase reporter under the control of an ISG54 minimal promoter in conjunction with five interferon (IFN)-stimulated response elements, and an induced SEAP driven by an IFN-β minimal promoter fused to five copies of the NF-κB consensus transcriptional response element and three copies of the c-Rel binding site. The luciferase and SEAP reporter are measurable in the cell culture supernatant using QUANTI-Luc™ 4 Lucia/Gaussia (InvivoGen) and QUANTI-Blue™ (InvivoGen) solution, respectively. Cells were seeded at 1 × 10^5 cells per well in 96-well plates in RPMI-1640 medium, supplemented with 10% FCS, L-glutamine and Pen-Strep. After 2 h of recovery, the compounds were applied at the concentrations indicated in triplicate. The cell culture supernatant (SN) was collected after 24 h of drug incubation and secreted luciferase and SEAP reporter levels were measured according to the manufacturer's recommendations. In brief, for the detection of luciferase, 20 μL of SN were transferred into 96-well white opaque plates, and 30 μL of QUANTI-Luc™ reagent were added per well using an injector module in a multimode microplate reader (Tecan Spark, Zurich, Switzerland). Luminescence was recorded at a reading time of 0.1 second. For the detection of SEAP, 10 μL of SN were transferred to 96-well plates and 90 μL of QUANTI-Blue™ were added per well. Absorbance was measured at 620 nm. Half-maximal effective concentrations (EC50 values) were derived via interpolation from dose–response curves, modeled with the four-parameter logistic (4PL) nonlinear regression model in GraphPad Prism. For comparison, the maximal response rate of the prodrug was depicted in the percent of the maximal response rate achieved by SR-717 or MSA-2 (%EMAX) at the respective concentrations tested. Activatability, tested in co-incubation experiments with AA (50 μM), was expressed as the area under the curve (AUC) ratio of +AA vs. −AA-treated cells. The STING-dependency of the reporter induction was tested by co-administration of the STING inhibitor H-151 (10 μM), added to the cell culture medium 2 h before applying the investigated compounds. In addition to monitoring secreted reporter levels, the cell viability of the reporter cells was determined after 24 h of drug treatment by an MTT-based cell viability assay.

[2] = system: NF-κB pathway (STING-dependent); assay: NF-κB-inducible SEAP reporter in THP1-Dual reporter cell model; type: cell-based, human; conditions: for NF-κB %EMAX of MSA-2: maximal response relative to MSA-2; for EC50: 24 h exposure, normalized to cell viability, oxaliplatin in combinations 5 μM
From the text: as §1

[3] = system: immune cell populations in tumor and spleen; assay: Immune activation and infiltration by flow cytometry; type: in vivo, CT-26-bearing BALB/c mice; conditions: 24 h after second dose
Method: Tumor size was determined daily via manual caliper measurement. […] Animals were euthanized via cervical dislocation.
The generation and treatment of tumor-bearing mice are outlined in the section “In vivo syngraft experiments” above. Samples were kept on ice during the whole procedure. Tissues were prepared as described previously.[55] In brief, tumor and spleen tissues were collected and mechanically dissociated in DPBS buffer containing Ca^2+/Mg^2+ and FCS (5%). Tumor samples were digested using collagenase VIII (1 mg mL^−1) in a DPBS buffer (without Ca^2+/Mg^2+) supplemented with DNAse I (1 mg mL^−1) for 15 min at 37 °C under constant shaking. Samples were filtered using 70 μm cell strainers in a DPBS buffer (without Ca^2+/Mg^2+) containing FCS (5%), EDTA (5 mM) and DNase I (20 μg mL^−1). Subsequent washing steps were performed in DPBS buffer (without Ca^2+/Mg^2+) containing FCS (5%), EDTA (5 mM) and DNase I (20 μg mL^−1), unless indicated otherwise. Red blood cells were removed by short incubation with ACK buffer. For blocking, samples were incubated with the Ultra-LEAF purified anti-mouse CD16/CD32 antibody (clone: 93; #101330; RRID:AB_2783037; dilution: 1 : 1000) (Biolegend, San Diego, CA, USA) in the BD Horizon Brilliant Stain Buffer (#563794; BD Biosciences) for 10 min. Next, the samples were incubated with an antibody mixture in the BD Horizon Brilliant Stain Buffer for 30 min. Fluorescent dye-labeled antibodies targeting murine CD3 (17A2; #100203; RRID:AB_312661; 1 : 50), CD8a (53-6.7; #100738; RRID:AB_11204079; 1 : 160), CD19 (6D5; #115528; RRID:AB_493735; 1 : 400), CD49b (DX5; #108924; RRID:AB_2565271; 1 : 229), CD11b (M1/70; #101228; RRID:AB_893232; 1 : 80), and CD69 (H1.2F3; # 104512; RRID:AB_493564; 1 : 40) were purchased from BioLegend. The antibody targeting murine CD4 (RM4-5; # 85-0042-U100; 1 : 80) and the viability dye Ghost Dye Red 780 (#13-0865-T100; 1 : 1000) were purchased from Tonbobio (San Diego, CA, USA). The antibody targeting CD45 (30-F11; #363-0451-82; RRID:AB_2925264; 1 : 80) was purchased from Life Tech (Invitrogen). For intracellular staining of granzyme B (GzmB) (QA16A02; #372208; RRID:AB_2687032; 1 : 20) and FoxP3 (MF-14; #320014; RRID:AB_439750; 1 : 100) the True-Nuclear Transcription Factor Buffer Set (Biolegend; #424401) was used according to the manufacturer's recommendations. In brief, samples were incubated with Perm Fix Solution for 60 min at RT. Next, the samples were stained with antibodies targeting GzmB and FoxP3 (diluted in Perm buffer) for 30 min at RT. […] Next day, the samples were analyzed using a Cytek Aurora 5L (Cytek Biosciences, CA, USA) spectral flow cytometer. Data were analyzed using SpectroFlo (v3.2.1) (Cytek Biosciences) and FlowJo (v10.8.1) (FlowJo LLC, Ashland, OR, USA) software.

Structure (SMILES)	IC50 (HCT116/OxR cells; without AA) [µM]	activation of IRF signaling pathway ([1]; 24 h)	activation of NF-κB signaling pathway ([2]; 24 h)	CD45+ cells among viable splenic cells [3]	splenic CD8+ T cells in the CD45+ cell population [3]	resistance factor (IC50 ratio HCT116/OxR vs parental HCT116) (HCT116/OxR cells) [fold]	IRF EC50 ratio fold MSA-2 ([1]; 24 h) [fold]	IRF %EMAX of MSA-2 ([1]; 24 h) [%]	EC50 [1] [µM]	impact of reducing conditions on IRF-induced reporter signal (AUC ratio +AA/−AA) ([1]; AA 50 μM)	NF-κB EC50 ratio fold MSA-2 ([2]; 24 h) [fold]	NF-κB %EMAX of MSA-2 ([2]; 24 h) [%]	EC50 [2] [µM]	FoxP3+ CD4+ T cell compartment in the spleen [3]
O=C1[O][Pt]2([NH][C@@H]3CCCC[C@H]3[NH]2)[O]C1=O [oxaliplatin, reference compound]	27.5	did not induce observable activation	did not induce observable activation	significantly upregulated	strongest effect	–	–	–	–	–	–	–	–	–
COCCOCCOCCOCCC(=O)[O][Pt-2]12([O]C(=O)CCC(=O)c3cc4cc(OC)c(OC)cc4s3)([NH2+][C@@H]3CCCC[C@H]3[NH2+]1)[O]C(=O)C(=O)[O]2 [Ox-MSA-PEG-Es, (OC-6-44)-[(1R,2R)-1,2-cyclohexanediamino]-oxalato-[4-(5,6-dimethoxybenzo[b]thiophen-2-yl)-4-oxobutylcarboxylato]-[2,5,8,11-tetraoxatetradecanoato]platinum(IV)]	–	–	–	–	–	> 3.1	8.6	24	78.8	significantly enhanced	> 5.7	15	> 100	–
COCCOCCOCCOCCNC(=O)[O][Pt-2]12([O]C(=O)CCC(=O)c3cc4cc(OC)c(OC)cc4s3)([NH2+][C@@H]3CCCC[C@H]3[NH2+]1)[O]C(=O)C(=O)[O]2 [Ox-MSA-PEG-Ca, (OC-6-34)-[(1R,2R)-1,2-cyclohexanediamino]-oxalato-[4-(5,6-dimethoxybenzo[b]thiophen-2-yl)-4-oxobutylcarboxylato]-[3,6,9,12-tetraoxatridecan-1-amino]platinum(IV)]	–	–	–	–	–	2.7	6.3	68	57.8	–	3.1	24	55.4	selectively elevated
